Tests used:
[1] = Binding of ammonium ions in organic solvent (CD3CN); conditions: 5.5 mg host, 6.7 mg (NH4)+(BPh4)-, 0.5 mL CD3CN
Experimental: To investigate whether ammonium ions present in an organic solvent can bind with CB[5]^OH, the following example was carried out.
5.5 mg of CB[5]^OH prepared in Synthesis Example 2 and 6.7 mg of (NH4)^+(BPh4)^− were dissolved in 0.5 mL CD3CN. Then, ammonium ions in (NH4)^+(BPh4)^− could bind with CB[5]^OH in an acetonitrile solution.

[2] = Binding constant measurement by microcalorimeter (VP-ITC) with KCl solution; conditions: 0.05 M Tris-buffered solution pH 7.2; 5.5 mM host, 110 mM KCl
Experimental: Since the hydroxycucurbituril derivatives obtained in Synthesis Example 1 have Lewis base atoms near the cavities of the molecule, they can effectively form a complex with metal ions or positively charged organic compounds. With these features, in order to investigate whether the hydroxycucurbituril derivatives having this property can be applied in manufacturing sensors for sensing metal ions or ammonium ions, the following example was carried out.
A 0.05 M Tris-buffered solution of pH 7.2 was prepared, and then a 5.5 mM hydroxycucurbit[5]uril (CB[5]^OH) solution prepared in Synthesis Example 2 and 110 mM of a KCl solution were prepared. Then, the binding constants of the cucurbit[5]uril derivative was measured using a microcalorimeter (VP-ITC, manufactured by MicroCal).

[3] = Ion selective electrode, potential differences on adding lead ions; conditions: 1 mM Mg(OAc)2-HCl buffered solution pH 4; lead ions 10^-6 M to 10^-3 M
Experimental: A solution obtained by dissolving 1% by weight of CB[5]^OH prepared in Synthesis Example 2 in 0.1 mL of methanol, 33% by weight of polyvinylchloride used as a polymer support, 65.6% by weight of 2-nitrophenyloctylether used as a plasticizer and 0.4 mL of tetrahydrofuran dissolved in 0.4% by weight of potassium tetrakis(4-chlorophenyl)borate, were homogenously mixed, followed by slowly removing the solvent, to form an ion selective membrane. An ion selective electrode was fabricated with this ion selective membrane. An electrode with a silver wire coated with silver chloride in a 0.05 M aqueous KCl solution was used as a reference electrode.
The reference electrode and the ion selective electrode were immersed in 250 mL of 1 mM Mg(OAc)2—HCl buffered solution (pH=4), followed by continuously stirring for at least 1 hour until a membrane boundary potential was stabilized. Thereafter, potential differences were measured with adding lead ions to increase the concentration by 10 fold in the range of 10^−6 M to 10^−3 M using a micropipet at an interval of 100 seconds

[4] = Host-guest complex formation with cyclopentane in D2O; format: binding; conditions: 6.6 mg host, 10 μL cyclopentane, 0.5 mL D2O
Experimental: 6.6 mg of hydroxycucurbit[6]uril (CB[6]^OH) prepared in Synthesis Example 1 and 10 μL of cyclopentane were dissolved in 0.5 mL of D2O.

[5] = Host-guest complex formation with p-toluidine in D2O; format: binding; conditions: 6.6 mg host, 1.2 mg p-toluidine, 0.5 mL D2O
Experimental: 6.6 mg of hydroxycucurbit[6]uril (CB[6]^OH) prepared in Synthesis Example 1 and 1.2 mg of p-toluidine were dissolved in 0.5 mL of D2O.

[6] = Host-guest complex formation with p-toluidine hydrochloride in D2O; format: binding; conditions: 6.6 mg host, 1.5 mg p-toluidine hydrochloride, 0.5 mL D2O
Experimental: 6.6 mg of hydroxycucurbit[6]uril (CB[6]^OH) prepared in Synthesis Example 1 and 1.5 mg of p-toluidine hydrochloride were dissolved in 0.5 mL of D2O.

[7] = Host-guest complex formation with 1,4-phenylindiamine in D2O; format: binding; conditions: 6.6 mg host, 1.2 mg 1,4-phenylindiamine, 0.5 mL D2O
Experimental: 6.6 mg of hydroxycucurbit[6]uril (CB[6]^OH) prepared in Synthesis Example 1 and 1.2 mg of 1,4-phenylindiamine were dissolved in 0.5 mL of D2O.

[8] = Host-guest complex formation with isobutene gas in D2O; format: binding; conditions: 6.6 mg host in 0.5 mL D2O, isobutene gas injected
[9] = Host-guest complex formation with acetylcholine chloride in D2O; format: binding; conditions: 6.6 mg host, 2.0 mg acetylcholine chloride, 0.5 mL D2O
Experimental: To investigate whether the hydroxycucurbituril derivatives prepared in Synthesis Example 1 can effectively transport physiologically active materials or drugs, the following example was carried out using acetylcholine chloride as a neurotransmitter.

[10] = Host-guest complex formation with tetrahydrofuran in D2O; format: binding; conditions: 6.6 mg host, 10 μL tetrahydrofuran, 0.5 mL D2O
Experimental: 6.6 mg of hydroxycucurbit[6]uril (CB[6]^OH) prepared in Synthesis Example 1 and 10 μL of tetrahydrofuran were dissolved in 0.5 mL of D2O.

[11] = Ion selective electrode responses to ammonium, potassium, sodium, choline and acetylcholine ions
Experimental: 1% by weight of allyoxycucurbit[6]uril prepared in Synthesis Example 8, 33% by weight of polyvinylchloride and 66% by weight of 2-nitrophenyloctylether were dissolved in THF to form a membrane. With this membrane, an ion selective electrode was fabricated. Then, the responses of the electrode with respect to ammonium ion, potassium ion, sodium ion, choline ion and acetylcholine ion were measured in a 0.01M Tris-buffered solution. As a result, the selectivity of choline with respect to acetylcholine was −1.84, ammonium ion −1.31, potassium ion −0.90 and sodium ion −1.16, respectively. The allyloxycurcubit[6]uril according to the present invention can be advantageously used in clinical analysis by selective detection of a neurotransmitter in vivo, e.g., acetylcholine, instead of choline which is a major obstacle in analyzing acetylcholine. The ion selective electrode using allyoxycucurbit[6]uril can be used in measuring acetylcholine in a concentration range of 2.1×10^−6 M.

In the case of hydroxycucurbit[5]uril [CB[5]^OH], the “binding of ammonium ions of (NH4)+(BPh4)- in acetonitrile solution” value [1] is reported as “could bind”, the “binding with alkali metal ions and ammonium ions (microcalorimeter)” value [2] is reported as “could selectively bind with alkali metal ions, as well as with ammonium ions” and the “ion selective electrode detection of heavy metal ions (lead)” value [3] is reported as “could be used in detecting harmful heavy metal ions remaining in water”.
For hydroxycucurbit[6]uril [CB[6]^OH], the “host-guest complex formation with cyclopentane” value [4] was “Quantitative formation of a 1:1 host-guest complex”, the “host-guest complex formation with p-toluidine” value [5] was “Quantitative formation of a 1:1 host-guest complex” and the “host-guest complex formation with p-toluidine hydrochloride” value [6] was “Quantitative formation of a 1:1 host-guest complex”. The “host-guest complex formation with 1,4-phenylindiamine” value [7] was “Quantitative formation of a 1:1 host-guest complex”, the “host-guest complex formation with isobutene gas” value [8] was “forming a 1:1 host-guest complex” and the “host-guest complex formation with acetylcholine chloride” value [9] was “forming a 1:1 host-guest complex”. For the same substance, the “host-guest complex formation with tetrahydrofuran” value [10] was “Quantitative formation of a 1:1 host-guest complex”.
In the case of “Allyloxycucurbit[6]uril [allyoxycucurbit[6]uril]”, the “concentration range in which acetylcholine can be measured” value [11] is reported as 2.1 µM.
